Results reported in patent publication US20100129933A1, “METHOD FOR DETECTING THE BINDING BETWEEN MDM2 AND THE PROTEASOME” (Forschungszentrum Karlsruhe GmbH, priority 2007, published 2010).
Peptide text beside a SMILES is read from it. * marks the point of attachment. Cbz = O=C(OCc1ccccc1)*

What was measured:
p53 ubiquitination = assay: Cellular p53 ubiquitylation assay in U2OS cells; type: cell-based; settings: His-tagged ubiquitin, 10 μM, 2 hours
Method: After incubation ubiquitylated proteins were purified by adsorption to Ni2+-agarose and separated by SDS-PAGE. P53 was detected by Western blotting. (TCL: Total cell lysate)
To test this option, we performed an cellular ubiquitylation assay in the presence of the compound.

HDM2 = molecular target: T1, HDM2 (Homo sapiens, UniProt Q00987); assay: Limited proteolysis of GST-HDM2 by trypsin; type: binding; settings: 10 μM compound, 40 ng trypsin, 15 min on ice
T1 construct: made in house; host or cells: bacteria (pGEX-4T-2 vector)
T1 sequence (Q00987 whole entry): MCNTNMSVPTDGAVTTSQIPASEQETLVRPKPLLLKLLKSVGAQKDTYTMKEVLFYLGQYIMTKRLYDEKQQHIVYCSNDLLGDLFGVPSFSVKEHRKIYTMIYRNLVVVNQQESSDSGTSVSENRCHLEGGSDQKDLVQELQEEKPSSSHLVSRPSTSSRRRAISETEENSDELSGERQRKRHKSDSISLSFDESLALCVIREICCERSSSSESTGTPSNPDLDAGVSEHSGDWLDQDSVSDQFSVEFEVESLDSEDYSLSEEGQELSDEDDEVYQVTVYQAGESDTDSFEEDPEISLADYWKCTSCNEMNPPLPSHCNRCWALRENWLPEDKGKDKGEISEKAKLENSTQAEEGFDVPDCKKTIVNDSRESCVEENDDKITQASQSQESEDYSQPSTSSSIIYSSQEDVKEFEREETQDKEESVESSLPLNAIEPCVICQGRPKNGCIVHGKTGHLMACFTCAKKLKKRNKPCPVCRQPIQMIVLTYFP
Method: GST-HDM2, GST-HDMX were incubated with 10 μM of JNJ-#1 or with DMSO for control. Then 40 ng trypsin were added and the mixture was incubated for 15 min on ice. […] HDM2 was detected by incubating the membrane with the HDM2 antibodies 4B2, SMP14 and C18. Western blots were developed by ECL.
40 ng of trypsin were added and the mixture was incubated for 15 min on ice. Samples were separated by 10% SDS-PAGE gel and blotted onto Immobilon P membrane. The membrane was incubated with the anti-HDM2 antibody 4B2. The Western blot was developed by ECL.
Then 40 ng trypsin was added and the mixture was incubated for 15 min on ice. Proteolysis was stopped by addition of 2× sample buffer. Samples were loaded onto an 12 or 15% SDS-PAGE gel and HDM2 or HDMX were detected by Western blotting.

COc1ccc(C2=N[C@@H](c3ccc(Cl)cc3)[C@@H](c3ccc(Cl)cc3)N2C(=O)N2CCNC(=O)C2)c(OC(C)C)c1 [Nutlin-3]
ubiquitylation of p53 (p53 ubiquitination): strongly reduced

CC(C)C[C@@H](C=O)NC(=O)[C@H](CC(C)C)NC(=O)[C@H](CC(C)C)NC(=O)OCc1ccccc1 [MG132] (Cbz-Leu-Leu-Leu-aldehyde)
proteolysis of GST-HDM2 by trypsin (HDM2): had no affect
